# Measurements published in publication PMC4399838, “Antipsychotic-Like Effect of the Muscarinic Acetylcholine Receptor Agonist BuTAC in Non-Human Primates” (PLoS ONE, 2015).
# Key:
# [1] = tested on: monkeys; set-up: method as in PMID 10435384; settings: cited from earlier work
# [2] = target: T1, human M4 muscarinic receptor (Homo sapiens, UniProt P08173); assay: GTP-γ-[35S] binding, antibody capture SPA (agonist and antagonist mode); type: biochemical
# T1 construct: purchased PerkinElmer Life and Analytical Sciences, Boston, MA
# T1 sequence (P08173 1-479): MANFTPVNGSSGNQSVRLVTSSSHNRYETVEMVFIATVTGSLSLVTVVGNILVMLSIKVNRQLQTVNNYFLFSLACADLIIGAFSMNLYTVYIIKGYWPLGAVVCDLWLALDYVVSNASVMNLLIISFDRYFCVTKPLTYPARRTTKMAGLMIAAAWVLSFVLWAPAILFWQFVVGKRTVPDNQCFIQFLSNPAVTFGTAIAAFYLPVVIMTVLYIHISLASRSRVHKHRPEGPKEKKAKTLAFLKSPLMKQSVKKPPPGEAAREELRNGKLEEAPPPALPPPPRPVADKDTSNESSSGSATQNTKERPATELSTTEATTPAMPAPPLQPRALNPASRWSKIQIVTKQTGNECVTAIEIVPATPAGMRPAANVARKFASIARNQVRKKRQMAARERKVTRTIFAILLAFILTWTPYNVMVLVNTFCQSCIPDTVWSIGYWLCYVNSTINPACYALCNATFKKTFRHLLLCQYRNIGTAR
# Procedure: (§1) The antibody capture scintillation proximity technique previously described by DeLapp et al was used in a 96-well plate to determine GTP-γ-[35S] binding. One hundred μl (20–40 fmol/well) of membrane preparation from CHO cells that stably express the human M1-M5 muscarinic receptors (PerkinElmer Life and Analytical Sciences, Boston, MA) were incubated with varying concentration of test compound (final concentrations from 50pM to 1μM) for 30 min. One μM final concentration of GDP was added to M2 and M4 receptor membranes before incubation. […] (500 pM final concentration; Perkin Elmer Life and Analytical Sciences) was added to each well followed by 30 min of incubation. […] An anti-Gαq/11 antibody was used for the M1-, M3-, and M5 membranes, whereas an anti-Gαi-3 antibody was used for the M2- and M4 membranes (Eli Lilly and Company, Indianapolis, IN). […] By use of a Wallac MicroBeta TriLux scintillation counter (PerkinElmer), the plates were centrifuged for 10 min at 700 × g and counted for 1 min per well. The incubations took place at room temperature in GTP-binding assay buffer (20 mM Hepes, 100 mm NaCl, 5 mM MgC12, pH 7.4). The data were analyzed by use of nonlinear regression for a sigmoidal concentration response curve (GraphPad Prism v. 4.0). Data were normalized to a full agonist response (100 μM oxotremorine-M). […] The antagonist percent inhibition data were normalized to data generated with an EC90 concentration of acetylcholine. The mean relative EC50, IC50, and %Emax, and pKi values were calculated as a mean of at least three independent experiments±SEM. In order to obtain relevant comparisons between subtypes, the experimental system is routinely calibrated with reference agonists (oxotremorine-M, pilocarpine, MCN-A343) to measure full and partial agonism as well as to ensure that the system is not under- or over-reporting functional efficacies. The radioligand binding assays have earlier been described.
# [3] = target: T2, human M5 muscarinic receptor (Homo sapiens, UniProt P08912); assay: as above; type: biochemical
# T2 construct: purchased PerkinElmer Life and Analytical Sciences, Boston, MA
# T2 sequence (P08912 1-532): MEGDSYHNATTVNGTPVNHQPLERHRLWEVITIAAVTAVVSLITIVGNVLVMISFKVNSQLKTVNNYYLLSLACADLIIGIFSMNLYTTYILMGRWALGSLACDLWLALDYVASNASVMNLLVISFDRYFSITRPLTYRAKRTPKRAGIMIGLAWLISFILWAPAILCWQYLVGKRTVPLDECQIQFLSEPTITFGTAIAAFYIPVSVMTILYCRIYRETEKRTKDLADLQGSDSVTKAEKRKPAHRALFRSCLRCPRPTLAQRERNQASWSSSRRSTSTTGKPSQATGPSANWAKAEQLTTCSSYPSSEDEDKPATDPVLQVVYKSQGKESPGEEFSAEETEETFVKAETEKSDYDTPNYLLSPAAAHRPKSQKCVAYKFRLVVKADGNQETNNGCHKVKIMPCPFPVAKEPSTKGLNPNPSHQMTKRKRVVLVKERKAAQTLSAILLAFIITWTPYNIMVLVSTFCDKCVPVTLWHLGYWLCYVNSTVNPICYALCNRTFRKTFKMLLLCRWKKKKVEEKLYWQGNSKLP
# Procedure: as §1
# [4] = target: T3, human M2 muscarinic receptor (Homo sapiens, UniProt P08172); assay: as above; type: biochemical
# T3 construct: purchased PerkinElmer Life and Analytical Sciences, Boston, MA
# T3 sequence (P08172 1-466): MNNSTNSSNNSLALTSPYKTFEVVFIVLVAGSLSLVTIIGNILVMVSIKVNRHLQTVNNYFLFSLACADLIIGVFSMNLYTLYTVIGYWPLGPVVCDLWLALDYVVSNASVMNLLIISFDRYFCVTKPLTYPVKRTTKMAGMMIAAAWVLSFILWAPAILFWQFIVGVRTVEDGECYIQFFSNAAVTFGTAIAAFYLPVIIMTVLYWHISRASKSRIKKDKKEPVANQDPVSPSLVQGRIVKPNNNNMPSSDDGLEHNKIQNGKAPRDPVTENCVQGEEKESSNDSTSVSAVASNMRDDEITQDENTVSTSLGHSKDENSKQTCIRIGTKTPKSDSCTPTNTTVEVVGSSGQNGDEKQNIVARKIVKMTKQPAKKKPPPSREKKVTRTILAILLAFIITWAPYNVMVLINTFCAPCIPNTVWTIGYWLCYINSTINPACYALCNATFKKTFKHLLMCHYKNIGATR
# Procedure: (§2) The antibody capture scintillation proximity technique previously described by DeLapp et al was used in a 96-well plate to determine GTP-γ-[35S] binding. One hundred μl (20–40 fmol/well) of membrane preparation from CHO cells that stably express the human M1-M5 muscarinic receptors (PerkinElmer Life and Analytical Sciences, Boston, MA) were incubated with varying concentration of test compound (final concentrations from 50pM to 1μM) for 30 min. One μM final concentration of GDP was added to M2 and M4 receptor membranes before incubation. […] (500 pM final concentration; Perkin Elmer Life and Analytical Sciences) was added to each well followed by 30 min of incubation. Then the labelled membranes were solubilized with 0.27% Nonidet P40 for 30 min where after they were incubated with 20 μl (final dilution of 1:400) of the appropriate rabbit polyclonal Gα antibody (Covance, Princeton, NJ) for 60 min. An anti-Gαq/11 antibody was used for the M1-, M3-, and M5 membranes, whereas an anti-Gαi-3 antibody was used for the M2- and M4 membranes (Eli Lilly and Company, Indianapolis, IN). After 60 min of incubation, 50 μl (1.25 mg/well) anti-rabbit scintillation proximity assay (SPA) beads (GE Healthcare, Piscataway, NJ) were added per well where after the plates were incubated for another 3 h. By use of a Wallac MicroBeta TriLux scintillation counter (PerkinElmer), the plates were centrifuged for 10 min at 700 × g and counted for 1 min per well. The incubations took place at room temperature in GTP-binding assay buffer (20 mM Hepes, 100 mm NaCl, 5 mM MgC12, pH 7.4). The data were analyzed by use of nonlinear regression for a sigmoidal concentration response curve (GraphPad Prism v. 4.0). Data were normalized to a full agonist response (100 μM oxotremorine-M). […] The antagonist percent inhibition data were normalized to data generated with an EC90 concentration of acetylcholine. The mean relative EC50, IC50, and %Emax, and pKi values were calculated as a mean of at least three independent experiments±SEM. In order to obtain relevant comparisons between subtypes, the experimental system is routinely calibrated with reference agonists (oxotremorine-M, pilocarpine, MCN-A343) to measure full and partial agonism as well as to ensure that the system is not under- or over-reporting functional efficacies. The radioligand binding assays have earlier been described.
# [5] = target: T4, human M3 muscarinic receptor (Homo sapiens, UniProt P20309); assay: as above; type: biochemical
# T4 construct: purchased PerkinElmer Life and Analytical Sciences, Boston, MA
# T4 sequence (P20309 whole entry): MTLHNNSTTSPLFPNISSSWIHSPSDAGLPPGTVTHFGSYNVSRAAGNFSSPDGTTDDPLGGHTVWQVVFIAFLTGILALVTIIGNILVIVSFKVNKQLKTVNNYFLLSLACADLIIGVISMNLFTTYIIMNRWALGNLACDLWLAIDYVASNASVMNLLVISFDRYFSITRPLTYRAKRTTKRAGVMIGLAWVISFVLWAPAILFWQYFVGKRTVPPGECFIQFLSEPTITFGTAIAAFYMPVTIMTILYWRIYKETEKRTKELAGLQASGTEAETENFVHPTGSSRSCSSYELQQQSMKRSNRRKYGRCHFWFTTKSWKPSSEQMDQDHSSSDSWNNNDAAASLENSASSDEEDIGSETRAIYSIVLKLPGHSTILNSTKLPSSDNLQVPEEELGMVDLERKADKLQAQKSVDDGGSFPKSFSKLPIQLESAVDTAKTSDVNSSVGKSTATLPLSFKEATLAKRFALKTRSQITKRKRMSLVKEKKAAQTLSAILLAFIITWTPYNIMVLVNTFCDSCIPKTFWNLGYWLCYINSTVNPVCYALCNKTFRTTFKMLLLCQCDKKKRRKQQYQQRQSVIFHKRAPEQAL
# Procedure: as §2
# [6] = target: M3AChR (Homo sapiens, UniProt P20309); assay: Competitive radioligand binding; settings: competitive binding; negative log-transformed; read-out: pKi (converted)
# Chain of M3AChR (P20309 whole entry): as above
# [7] = tested on: schizophrenic patients; set-up: method as in PMID 13425257; settings: subcutaneous injection, twenty-three schizophrenic patients; cited from earlier work
# [8] = tested on: monkeys; assay: BuTAC-induced emesis and its inhibition by domperidone; type: in vivo, Cebus Apella
# Procedure: S1 Table. Emesis BuTAC / Domperidone
# BuTAC 0.01 mg/kg / 1 in 7
# Domperidone was purchased from Tocris Bioscience (Bristol, United Kingdom) and dissolved
# in 0.9% saline. The compound was administered subcutaneously where after the animals
# [9] = tested on: antipsychotic-naïve Cebus Apella monkeys; assay: d-Amphetamine-induced behaviour (unrest, stereotypies, arousal), video rating; type: in vivo
# Procedure: (§3) Seven male Cebus Apella monkeys were used for evaluation the anti-amphetamine effect and the side effect profile of BuTAC. These monkeys were never before administered antipsychotics and had never experienced EPS, but had previously been administered amphetamine. For further evaluation of the EPS potential of BuTAC, the compound was tested in four male and female monkeys, all sensitized to drug-induced EPS by earlier chronic treatment with classical antipsychotic drugs.
# (§4) All monkeys received all treatments with at least one week between tests and thus served as their own control. To avoid extended physical contact with the experimenter, the cages were reduced in sized by moving the back wall of the cage closer to the front wall to lightly immobilize the monkey while injecting the test substance in the thigh. This was done at 9 am at test days. After the appropriate pre-treatment time, the monkeys were videotaped in their cages at predefined time points after drug injection.
# (§5) The rated primate behaviours and symptoms were the following: unrest, stereotypy, arousal, sedation and bradykinesia (Table 1). All monkeys were videotaped in 90-sec. sessions at specific time points throughout the test sessions. The videotapes were rated for amphetamine-induced behaviours and EPS by two experienced raters blinded to the treatment of the animal by means of a rating scale adapted from Peacock et al. and previously described by Andersen et al. (Table 1). In case of any discrepancy between the two ratings, the recording in question was re-evaluated and a rating agreed upon. The monkeys were videotaped at t = 30, 60, 90, 135, 150, 165, 180, 240, 300 min after BuTAC (or vehicle) administration. For the combination studies, d-amphetamine was injected at t = 120 min. Oral dyskinesia was measured in counts per 90 sec. The severity of other behaviours and symptoms were rated on a scale ranging from 0 (not present) to 6 (extreme presence).
# (§6) For evaluation of anti-amphetamine effects, BuTAC was tested in doses of 0.001, 0.003, 0.01 mg/kg in combination with 0.5 mg/kg of d-amphetamine. BuTAC or peanut oil vehicle was injected s.c. at approximately 9 a.m. Pre-treatment time before s.c. injection of amphetamine was 120 min. For evaluation of side effects, BuTAC was tested alone at doses of 0.001, 0.003 and 0.01 mg/kg in antipsychotic-naïve monkeys and at doses of 0.003 and 0.01 mg/kg in monkeys sensitized to extrapyramidal side effects (EPS) by earlier long-term treatment with first generation antipsychotics. […] None of the animals were sacrificed.
# (§7) Data from the experiments where BuTAC was administered alone collected at t = 60, 180, 300 min are presented. For the d-amphetamine / BuTAC study, data collected at t(amp) = 60, 120 and 180 min (t = 180, 240, 300 min) are reported. Data were analyzed for overall treatment effects at each time point by means of the non-parametric Friedman’s test for repeated measures. The Student Newman-Keuls comparison procedure was used to analyze for specific dose effects. For all tests, the accepted level of significance was p<0.05.
# [10] = tested on: antipsychotic-naïve Cebus Apella monkeys; assay: Side effects of BuTAC alone or with d-amphetamine; type: in vivo; settings: d-amphetamine 0.5 mg/kg alone
# Procedure: as §3, §4, §5, §6, §7
# [11] = antagonist mode, maximal inhibition of EC90 agonist response
# [12] = percentage of maximum 100 μM oxotremorine-M signal, read-out: % Emax
# [13] = percentage of maximum 100 μM oxotremorine-M signal
smiles,measurement,setting,value
O=C(CCCN1CCC(O)(c2ccc(Cl)cc2)CC1)c1ccc(F)cc1 [haloperidol],Minimal effective dose to inhibit amphetamine-induced behaviour,[1],0.015 mg/kg
"CCCCCCOc1nsnc1C1=CCCN(C)C1 [Xanomeline, xanomeline]",% Inhibition,[2]; [11],51.4 ± 2.61%
same,Emax,[2]; [12],41.8 ± 1.99%
same,% Inhibition,[3]; [11],81.8 ± 18.5%
same,Emax,[3]; [12],28.7 ± 0.7%
same,% Inhibition,[4]; [11],19.4 ± 0.77%
same,Emax,[4]; [13],55.2 ± 5.12%
same,EC50,"[5]; agonist mode, mean ± SEM of negative log-transformed values, read-out: Rel pEC50 (converted)",0.0178 µM
same,IC50,"[5]; antagonist mode against EC90 of agonist, negative log-transformed, read-out: Rel pIC50 (converted)",0.832 µM
same,% Inhibition,[5]; [11],87.6 ± 6.79%
same,Emax,[5]; [13],13.6 ± 0.56%
same,Ki,[6],0.0275 µM
COC(=O)C1=CCCN(C)C1 [arecoline],Patients with clinical improvement (“lucid intervals”),[7],more than 80%
O=c1[nH]c2ccccc2n1CCCN1CCC(n2c(=O)[nH]c3cc(Cl)ccc32)CC1 [domperidone],"Emetic events (vomiting), monkeys with emesis",[8]; BuTAC 0.01 mg/kg / domperidone 0.05 mg/kg s.c.,3/7
same,"Emetic events (vomiting), monkeys with emesis",[8]; BuTAC 0.01 mg/kg / domperidone 0.10 mg/kg s.c.,1/7
same,Effect on BuTAC (0.01 mg/kg)-induced emesis,[8]; domperidone 0.05 and 0.1 mg/kg,dose dependently inhibited
"C[C@H](N)Cc1ccccc1.C[C@H](N)Cc1ccccc1.O=S(=O)(O)O [d-amphetamine, d-Amphetamine sulphate, reference compound]",Stereotypies,"[9]; amphetamine 0.5 mg/kg alone, all three test times",significantly induced stereotypies
same,Arousal,"[9]; d-amphetamine 0.5 mg/kg alone, all test times",induced arousal
same,Unrest,"[9]; d-amphetamine 0.5 mg/kg alone, all time points, relative to vehicle",significantly increased unrest
same,Emetic events (vomiting) (monkeys affected),[10],0
same,Salivation (monkeys affected),[10],0
same,Sedation 2 ≤ X ≤ 5 (monkeys affected),[10],0
